Assay results from PMC4703981, “Autophosphorylation at Thr279 of Entamoeba histolytica atypical kinase EhAK1 is required for activity and regulation of erythrophagocytosis” (Scientific Reports, 2016).

Biological target: T1, EhAK1 (Entamoeba histolytica, UniProt C4M9G9)
T1 construct: gene EHI_105830
Settings: maximal quench on ATP titration, no affinity constant

T1 sequence (C4M9G9 entry or part of it): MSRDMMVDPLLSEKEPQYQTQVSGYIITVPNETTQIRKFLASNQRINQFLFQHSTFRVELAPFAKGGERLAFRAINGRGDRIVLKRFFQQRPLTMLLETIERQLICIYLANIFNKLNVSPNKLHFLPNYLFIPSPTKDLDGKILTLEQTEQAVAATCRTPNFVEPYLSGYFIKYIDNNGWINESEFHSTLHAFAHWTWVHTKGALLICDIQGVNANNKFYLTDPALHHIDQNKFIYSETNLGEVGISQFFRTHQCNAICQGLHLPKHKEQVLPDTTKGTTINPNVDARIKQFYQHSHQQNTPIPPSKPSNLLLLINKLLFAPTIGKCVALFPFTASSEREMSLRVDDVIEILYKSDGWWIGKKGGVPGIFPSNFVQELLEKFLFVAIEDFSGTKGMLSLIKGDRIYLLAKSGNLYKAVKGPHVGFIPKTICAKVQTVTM

Nc1ncnc2c1ncn2[C@@H]1O[C@H](COP(=O)(O)OP(=O)(O)OP(=O)(O)O)[C@@H](O)[C@H]1O [ATP]
% decrease in Trp fluorescence: 76%
